2 compounds from patent US8372847B2, “Pyrazinone modulator of corticotropin-releasing factor receptor activity” (Bristol-Myers Squibb Company, priority 2008, dated 2013) can be followed below.

What is called IC50 is the concentration needed to halve the response being measured.

One assay concerns Male Sprague-Dawley rats. Put plainly: Situational anxiety behavioral model in rats (latency to exit dark cylinder into open field). The assay is classed as in vivo, rat. From the text: Situational Anxiety Behavioral Studies in Rats. (S)-4-(1-Cyclopropyl-2-methoxyethyl)-6-(6-(difluoromethoxy)-2,5-dimethylpyridin-3-ylamino)-5-oxo-4,5-dihydropyrazine-2-carbonitrile has been evaluated in a situational anxiety model to evaluate its anxiolytic potential. In this model, rats are placed in a small, darkened chamber located in an unfamiliar open field. Vehicle-treated rats spend most of the time within the chamber, consistent with a heightened state of anxiety [Takahashi L. K. et al, Behav. Neurosci. 103: 648-654, (1989)]. This model is sensitive to anxiolytics, including benzodiazepines such as chlordiazepoxide [Yang X-M. et al, J. Pharmacol. Exp. Ther. 255: 1064-1070, (1990)]. In addition, previous CRF1 antagonists, such as DMP696 and DMP904 [McElroy J. F. et al., Psychopharmacology 165: 86-92, (2002); Lelas S. et al., J. Pharmacol. Exp. Ther. 309: 293-302, (2004)] were effective this model. The effects of (S)-4-(1-cyclopropyl-2-methoxyethyl)-6-(6-(difluoromethoxy)-2,5-dimethylpyridin-3-ylamino)-5-oxo-4,5-dihydropyrazine-2-carbonitrile were compared with those of anxiolytic standards chlordiazepoxide (Librium®) and diazepam (Valium®) in this model. Male Sprague-Dawley rats weighing 180-300 g were purchased from Charles River Laboratories (Wilmington, Mass.). The rats were housed individually in suspended wire cages in colony rooms maintained at a constant temperature (21±2° C.) and humidity (50±10%). The rooms were illuminated 12 hours per day. The rats had ad libitum access to food and water throughout the studies. Behavioral studies were conducted between 0600 and 1300 h. Animals were maintained in accordance with the guidelines of the Animal Care and Use Committee of the Bristol-Myers Squibb Company, the “Guide for Care and Use of Laboratory Animals” (Institute of Animal Laboratory Resources, 1996), and the guidelines published in the National Institutes of Health Guide for the Care and Use of Laboratory Animals. Research protocols were approved by the Bristol-Myers Squibb Company Animal Care and Use Committee. All compounds were prepared in 0.25% methylcellulose and administered PO. Chlordiazepoxide, diazepam, and desipramine were purchased from Sigma Chemical Company. (S)-4-(1-Cyclopropyl-2-methoxyethyl)-6-(6-(difluoromethoxy)-2,5-dimethylpyridin-3-ylamino)-5-oxo-4,5-dihydropyrazine-2-carbonitrile was dosed in the volume of 2 ml/kg. All standards were dosed in the volume of 2 ml/kg. For all tests, data were analyzed by analysis of variance, followed by Dunnett's t-tests for individual comparisons. The significance value was set at 0.05. The data are presented in the text and figures as mean±standard error of the mean (SEM). Male Sprague-Dawley rats were habituated to handling and dosing the day before testing. On the day of testing, all compounds were administered PO by gavage 60 minutes before behavioral testing. To initiate testing, each animal was placed in a small galvanized steel cylinder (14 cm length, 10 cm diameter), which was placed lengthwise against one wall of an illuminated open field (106 cm length×92 cm width×50 cm height). The open field was illuminated by a 60-W incandescent bulb and illumination was titrated by a powerstat transformer to a 30-lux reading at the entrance to the cylinder. Behavior was assessed for 15 minutes by a trained observer unaware of treatment assignment. The latency of the animal to exit the cylinder, defined by the placement of all four paws into the open field, and explore the open field was recorded (in seconds). […] The Plexiglas chamber and the cylinder were cleaned with 1.0% glacial acetic acid between animals to prevent olfactory cues from influencing the behavior of subsequently tested animals. Following behavioral testing, animals were sacrificed and plasma samples and brains were taken for analysis of plasma exposure and central receptor occupancy.

For another assay, the target named is T1, human CRF1 receptors (Homo sapiens, UniProt P34998).
T1 construct: the native CRF1 receptors present on the human retinoblastoma cell line Y79; endogenous in cells; host or cells: Y79 human retinoblastoma cells
T1 sequence (P34998 24-415): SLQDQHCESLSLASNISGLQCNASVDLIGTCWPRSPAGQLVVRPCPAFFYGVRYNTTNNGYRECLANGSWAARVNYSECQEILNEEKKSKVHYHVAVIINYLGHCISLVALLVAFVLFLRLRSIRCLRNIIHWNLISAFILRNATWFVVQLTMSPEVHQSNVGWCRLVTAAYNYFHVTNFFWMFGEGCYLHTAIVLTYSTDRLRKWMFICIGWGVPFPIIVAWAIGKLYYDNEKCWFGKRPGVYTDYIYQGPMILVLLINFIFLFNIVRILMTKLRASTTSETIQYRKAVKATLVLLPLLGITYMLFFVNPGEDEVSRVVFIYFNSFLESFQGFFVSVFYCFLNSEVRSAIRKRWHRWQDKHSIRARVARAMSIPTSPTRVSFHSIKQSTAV
Put plainly: hCRF1 binding assay, 125I-o-CRF competition, Y79 cell membranes. As to conditions: native human CRF1 receptors, Y79 retinoblastoma cells; n=3; read-out: IC50, inhibition of 125I-o-CRF binding to Y79 membrane. How it is done: hCRF1 Binding Assay. Membranes were prepared for binding using Y79 cells, a human retinoblastoma line that natively expresses human CRF1 receptors [Hauger, R., et al., Journal of Neurochemistry 68: 2308-2316, (1997)]. Briefly, cells were grown and collected then the pellet homogenized in assay buffer containing 50 mM Hepes (pH 7.0 at 23° C.), 10 mM MgCl2, 2 mM EGTA, 1 μg/ml aprotinin, 1 μg/ml leupeptin, 1 μg/ml pepstatin A, 0.005% Triton X-100, 10 U/ml bacitracin and 0.1% ovalbumin. The suspension was centrifuged at 32000×g for 30 minutes. The resulting supernatant was discarded and the pellet resuspended by homogenization in assay buffer and centrifuged again. The supernatant was discarded and the pellet resuspended by homogenization in assay buffer and aliquots frozen at −70° C. On the day of the experiment aliquots were thawed quickly and 25 μg/well added to 150 pM ^125I-ovine-CRF and drugs in a total volume of 100 μl assay buffer. The assay mixture was incubated for 2 hr at 21° C. Bound and free radioligand were then separated by rapid filtration using glass fiber filters (Whatman GF/B, pretreated with 0.3% PEI) on a Brandel Cell Harvester. […] Filters were then counted in a Wallac Wizard gamma counter. IC50 values were determined in a five point (five drug concentrations) competition assay using non-linear regression by Microsoft Excel-fit. […]

For `COCC(COC)Nc1nc(C)nc2c(-c3ccc(Cl)cc3Cl)c(C)nn12` [DMP696], the “decrease in exit latency” value turned out to be 62% in the assay with Male Sprague-Dawley rats (10 mg/kg, positive control, dose-response study); 57% in the assay with Male Sprague-Dawley rats (10 mg/kg, positive control, first single-dose study); 74% in the assay on Male Sprague-Dawley rats (10 mg/kg, positive control, second single-dose study); 81% with Male Sprague-Dawley rats (10 mg/kg, positive control, third single-dose study). Also, the IC50 at human CRF1 receptors came out at 1.71 ± 0.53 nM.
Turning to `COC[C@H](C1CC1)n1cc(C#N)nc(Nc2cc(C)c(OC(F)F)nc2C)c1=O` [(S)-4-(1-cyclopropyl-2-methoxyethyl)-6-(6-(difluoromethoxy)-2,5-dimethylpyridin-3-ylamino)-5-oxo-4,5-dihydropyrazine-2-carbonitrile], the “effect on exit latency” value was “did not significantly alter exit latency” in the assay with Male Sprague-Dawley rats (0.56 mg/kg PO, dose-response study) and “did not significantly alter exit latency” in the assay on Male Sprague-Dawley rats (1.0 mg/kg PO, dose-response study). The “significant decrease of exit latency” value with Male Sprague-Dawley rats (1.0 mg/kg PO, single-dose study) is “but not of 1.0 mg/kg”. In addition, the “decrease in exit latency relative to vehicle-treated controls” value in the assay on Male Sprague-Dawley rats (1.8 mg/kg PO, dose-response study) amounted to 60%; in the assay on Male Sprague-Dawley rats (3.0 mg/kg PO, dose-response study), 56%. In addition, the “decrease in exit latency” value with Male Sprague-Dawley rats (1.8 mg/kg PO, single-dose study) stood at 53%; in the assay with Male Sprague-Dawley rats (3.0 mg/kg PO, single-dose study), 51%. In the assay with Male Sprague-Dawley rats (PO, 60 minutes before testing), the “lowest effective dose (decrease of exit latency)” value was determined as 1.8 mg/kg. Further, in the assay on Male Sprague-Dawley rats (PO, summary), the “anxiolytic-like effects, potency compared with standards” value is “comparable potency to the benzodiazepines diazepam and chlordiazepoxide”. The IC50 at human CRF1 receptors was determined as 1.81 ± 0.46 nM.
